Tests used:
B. subtilis 168 [1] = assay: fitness (endpoint OD595 vs no drug) (fraction); higher = more growth
Method in brief: (§1)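 Volumes were 30 µl per well, or 55 µl for S. pneumoniae, in 384-well plates inoculated at OD595 0.01. Media were TSB, LB Lennox or CY at 37 °C, and OD595 was read every 30 min for 14 h with first-reading background subtraction. Fitness is the ratio of optical density at stationary-phase entry to the robust mean of no-drug controls. That ratio is capped at 1.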

S. pneumoniae D39V [2] = assay: as above
Method in brief: as §1

S. aureus DSM 20231 = assay: Bliss interaction score (quartile over a dose matrix) (fitness difference); higher = more antagonism (negative = synergy)
Method in brief: (§2)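 Each plate was normalised to the robust mean of its own no-drug wells, using OD595 at entry into stationary phase, with values capped at 1. This normalised growth is the fitness value. The Bliss score is the difference between observed and product-expected fitness, with single-drug fitness inferred from the combination data and quartiles taken over technical, biological and donor/recipient replicates.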

B. subtilis 168 [3] = assay: as above
Method in brief: as §2

S. pneumoniae D39V [4] = assay: as above
Method in brief: as §2

S. aureus Newman = assay: as above
Method in brief: as §2
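For Bliss interaction score (quartile over a dose matrix) in this document: first quartile when negative (synergy) and third quartile when positive (antagonism).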

C[C@H]1c2cccc(O)c2C(=O)C2=C(O)[C@]3(O)C(=O)C(C(N)=O)=C(O)[C@@H](N(C)C)[C@@H]3[C@@H](O)[C@@H]21 [Doxycycline] + Cc1ncc([N+](=O)[O-])n1CCO [Metronidazole]
fitness
Conditions	partner 0.625 µg/mL	partner 1.073 µg/mL	partner 1.25 µg/mL	partner 2.145 µg/mL	partner 2.5 µg/mL	partner 4.29 µg/mL	partner 5 µg/mL
B. subtilis 168 [1], first compound 0.02 µg/mL	0.914	–	0.899	–	0.933	–	–
B. subtilis 168 [1], first compound 0.04 µg/mL	0.774	–	0.835	–	0.844	–	–
B. subtilis 168 [1], first compound 0.08 µg/mL	0.701	–	0.682	–	0.61	–	–
S. pneumoniae D39V [2], first compound 0.0155 µg/mL	–	0.873	0.994	0.851	≥ 1	0.809	0.968
S. pneumoniae D39V [2], first compound 0.031 µg/mL	–	0.889	–	0.853	–	0.835	–
S. pneumoniae D39V [2], first compound 0.062 µg/mL	–	0.838	–	0.865	–	0.829	–

fitness, S. pneumoniae D39V [2], one replicate
Conditions	first compound 0.003875 µg/mL	first compound 0.00775 µg/mL	first compound 0.031 µg/mL	first compound 0.062 µg/mL
partner 1.25 µg/mL	≥ 1	≥ 1	0.938	0.775
partner 2.5 µg/mL	≥ 1	≥ 1	0.91	0.794
partner 5 µg/mL	≥ 1	≥ 1	0.892	0.757

Conditions	Bliss interaction score
B. subtilis 168 [3]	0.0635
S. aureus DSM 20231	0.0684
S. aureus Newman	0.0262
S. pneumoniae D39V [4]	0.0539

C[C@H]1c2cccc(O)c2C(=O)C2=C(O)[C@]3(O)C(=O)C(C(N)=O)=C(O)[C@@H](N(C)C)[C@@H]3[C@@H](O)[C@@H]21 [Doxycycline] + CCC[C@@H]1C[C@@H](C(=O)N[C@@H]([C@H]2O[C@H](SC)[C@H](O)[C@@H](O)[C@H]2O)[C@@H](C)O)N(C)C1 [Lincomycin]
fitness
Conditions	partner 0.1 µg/mL	partner 0.2 µg/mL	partner 0.215 µg/mL	partner 0.4 µg/mL	partner 0.43 µg/mL	partner 0.8 µg/mL	partner 0.86 µg/mL
B. subtilis 168 [1], first compound 0.02 µg/mL	0.918	0.888	–	0.885	–	–	–
B. subtilis 168 [1], first compound 0.04 µg/mL	0.764	0.72	–	0.717	–	–	–
S. pneumoniae D39V [2], first compound 0.0155 µg/mL	–	0.76	0.726	0.657	0.62	0.213	0.344
S. pneumoniae D39V [2], first compound 0.031 µg/mL	–	–	0.716	–	0.625	–	0.298
S. pneumoniae D39V [2], first compound 0.062 µg/mL	–	–	0.674	–	0.481	–	0.221

fitness, one replicate
Conditions	first compound 0.003875 µg/mL	first compound 0.00775 µg/mL	first compound 0.02 µg/mL	first compound 0.031 µg/mL	first compound 0.04 µg/mL	first compound 0.062 µg/mL	first compound 0.08 µg/mL
B. subtilis 168 [1], partner 0.8 µg/mL	–	–	0.881	–	0.693	–	0.209
B. subtilis 168 [1], partner 1.6 µg/mL	–	–	0.792	–	0.549	–	0.153
S. pneumoniae D39V [2], partner 0.2 µg/mL	0.822	0.77	–	0.636	–	0.374	–
S. pneumoniae D39V [2], partner 0.4 µg/mL	0.748	0.711	–	0.398	–	0.146	–
S. pneumoniae D39V [2], partner 0.8 µg/mL	0.231	0.303	–	0.163	–	0.0672	–

Conditions	Bliss interaction score
B. subtilis 168 [3]	0.0648
S. aureus DSM 20231	-0.228
S. aureus Newman	-0.0975
S. pneumoniae D39V [4]	-0.13

C[C@H]1c2cccc(O)c2C(=O)C2=C(O)[C@]3(O)C(=O)C(C(N)=O)=C(O)[C@@H](N(C)C)[C@@H]3[C@@H](O)[C@@H]21 [Doxycycline] + CN(C)c1cc(NC(=O)CNC(C)(C)C)c(O)c2c1C[C@H]1C[C@H]3[C@H](N(C)C)C(O)=C(C(N)=O)C(=O)[C@@]3(O)C(O)=C1C2=O [Tigecycline]
Conditions	fitness
B. subtilis 168 [1], first compound 0.02 µg/mL, partner 0.039 µg/mL	0.94
B. subtilis 168 [1], first compound 0.02 µg/mL, partner 0.078 µg/mL	0.818
B. subtilis 168 [1], first compound 0.02 µg/mL, partner 0.156 µg/mL	0.85
B. subtilis 168 [1], first compound 0.04 µg/mL, partner 0.039 µg/mL	0.824
B. subtilis 168 [1], first compound 0.04 µg/mL, partner 0.078 µg/mL	0.773
B. subtilis 168 [1], first compound 0.04 µg/mL, partner 0.156 µg/mL	0.792
B. subtilis 168 [1], first compound 0.08 µg/mL, partner 0.078 µg/mL	0.619
B. subtilis 168 [1], first compound 0.08 µg/mL, partner 0.156 µg/mL	0.635
S. pneumoniae D39V [2], first compound 0.0155 µg/mL, partner 0.65 µg/mL	0.969
S. pneumoniae D39V [2], first compound 0.0155 µg/mL, partner 1.3 µg/mL	0.922
S. pneumoniae D39V [2], first compound 0.0155 µg/mL, partner 2.6 µg/mL	0.903
S. pneumoniae D39V [2], first compound 0.031 µg/mL, partner 0.65 µg/mL	0.902
S. pneumoniae D39V [2], first compound 0.031 µg/mL, partner 1.3 µg/mL	0.831
S. pneumoniae D39V [2], first compound 0.031 µg/mL, partner 2.6 µg/mL	0.796
S. pneumoniae D39V [2], first compound 0.062 µg/mL, partner 0.65 µg/mL	0.885
S. pneumoniae D39V [2], first compound 0.062 µg/mL, partner 1.3 µg/mL	0.773
S. pneumoniae D39V [2], first compound 0.062 µg/mL, partner 2.6 µg/mL	0.732

fitness, one replicate
Conditions	partner 0.125 µg/mL	partner 0.25 µg/mL	partner 0.5 µg/mL	partner 0.65 µg/mL	partner 1.3 µg/mL	partner 2.6 µg/mL
B. subtilis 168 [1], first compound 0.02 µg/mL	0.99	0.873	0.962	–	–	–
B. subtilis 168 [1], first compound 0.04 µg/mL	0.994	0.849	0.895	–	–	–
B. subtilis 168 [1], first compound 0.08 µg/mL	0.761	0.611	0.697	–	–	–
S. pneumoniae D39V [2], first compound 0.003875 µg/mL	–	–	–	≥ 1	≥ 1	≥ 1
S. pneumoniae D39V [2], first compound 0.00775 µg/mL	–	–	–	1	0.963	0.954

Conditions	Bliss interaction score
B. subtilis 168 [3]	0.0765
S. aureus DSM 20231	-0.104
S. aureus Newman	-0.0649
S. pneumoniae D39V [4]	0.0303

C[C@H]1c2cccc(O)c2C(=O)C2=C(O)[C@]3(O)C(=O)C(C(N)=O)=C(O)[C@@H](N(C)C)[C@@H]3[C@@H](O)[C@@H]21 [Doxycycline] + Cc1onc(-c2ccccc2)c1C(=O)N[C@@H]1C(=O)N2[C@@H]1SC(C)(C)[C@@H]2C(=O)O [Oxacillin]
Conditions	fitness
B. subtilis 168 [1], first compound 0.02 µg/mL, partner 0.002 µg/mL	0.885
B. subtilis 168 [1], first compound 0.02 µg/mL, partner 0.004 µg/mL	0.933
B. subtilis 168 [1], first compound 0.02 µg/mL, partner 0.008 µg/mL	0.882
B. subtilis 168 [1], first compound 0.04 µg/mL, partner 0.002 µg/mL	0.762
B. subtilis 168 [1], first compound 0.04 µg/mL, partner 0.004 µg/mL	0.771
B. subtilis 168 [1], first compound 0.04 µg/mL, partner 0.008 µg/mL	0.716
B. subtilis 168 [1], first compound 0.08 µg/mL, partner 0.002 µg/mL	0.419
B. subtilis 168 [1], first compound 0.08 µg/mL, partner 0.004 µg/mL	0.422
B. subtilis 168 [1], first compound 0.08 µg/mL, partner 0.008 µg/mL	0.372
S. pneumoniae D39V [2], first compound 0.0155 µg/mL, partner 0.01 µg/mL	0.957
S. pneumoniae D39V [2], first compound 0.0155 µg/mL, partner 0.02 µg/mL	0.921
S. pneumoniae D39V [2], first compound 0.031 µg/mL, partner 0.01 µg/mL	0.917
S. pneumoniae D39V [2], first compound 0.031 µg/mL, partner 0.02 µg/mL	0.885
S. pneumoniae D39V [2], first compound 0.062 µg/mL, partner 0.01 µg/mL	0.859
S. pneumoniae D39V [2], first compound 0.062 µg/mL, partner 0.02 µg/mL	0.801
S. pneumoniae D39V [2], first compound 0.062 µg/mL, partner 0.04 µg/mL	0.71

fitness, one replicate
Conditions	partner 0.0078 µg/mL	partner 0.01 µg/mL	partner 0.0155 µg/mL	partner 0.02 µg/mL	partner 0.031 µg/mL	partner 0.04 µg/mL	partner 0.075 µg/mL	partner 0.15 µg/mL	partner 0.3 µg/mL
B. subtilis 168 [1], first compound 0.02 µg/mL	≥ 1	–	≥ 1	–	≥ 1	–	0.661	0.0438	0.0604
B. subtilis 168 [1], first compound 0.04 µg/mL	0.858	–	0.843	–	0.843	–	0.576	0.025	0.0223
B. subtilis 168 [1], first compound 0.08 µg/mL	0.721	–	0.742	–	0.716	–	0.102	0.0327	0.0213
S. pneumoniae D39V [2], first compound 0.003875 µg/mL	–	≥ 1	–	0.978	–	0.357	–	–	–
S. pneumoniae D39V [2], first compound 0.00775 µg/mL	–	≥ 1	–	0.959	–	0.571	–	–	–

Conditions	Bliss interaction score
B. subtilis 168 [3]	0.0493
S. aureus DSM 20231	0.0402
S. aureus Newman	-0.0136
S. pneumoniae D39V [4]	0.159

Source: the supplement of paper PMC10627819
